Measured values: patent US20230273220A1, “METHODS FOR PREDICTION, DETECTION AND MONITORING OF SUBSTANCEUSE DISORDERS AND/OR AN INFECTION” (NATIONAL HEALTH RESEARCH INSTITUTES, priority 2020, published 2023)

Experiments:
[1] = Self-reported skin irritation after taking methadone in MMT patients; conditions: 15 of 344 MMT patients
Method: The inclusion criteria included subjects aged 18 or above, having undergone MMT for at least three months with regular attendance for the past seven days, and a methadone dosage adjustment of not more than 10 mg in the past seven days. Exclusion criteria included co-morbidity with physical and mental disorders requiring immediate treatment and pregnancy.

[2] = Plasma nicotine metabolite cotinine concentration in MMT patients subgrouped by age; type: in vivo, human

SMILES	Patients self-reporting skin irritation after taking methadone [1]	Plasma cotinine concentration ([2]; MMT subjects age <45, n=275, mean ± SD)	Plasma cotinine concentration ([2]; MMT subjects age ≥45, n=69, mean ± SD)
CCC(=O)C(CC(C)N(C)C)(c1ccccc1)c1ccccc1 (stereo not drawn) [R,S-methadone]	around 4.4%		
CN1C(=O)CC[C@H]1c1cccnc1 [Cotinine]		384.20 ± 184.90 ng/mL	439.65 ± 203.44 ng/mL
